Data taken from patent US20230365542A1, “Selective Agonists of 5-HT2A Receptor and Methods of Use” (Yale University, priority 2020, published 2023).
Like-named read-outs stand apart in the source and are kept apart here.

How the values were obtained:
5-HT2AR [1] = molecular target: T1, 5-HT2AR (Homo sapiens, UniProt P28223); assay: Calcium flux assay (FLIPR, Fluo-4), 5-HT2AR stable cell line; type: cell-based; settings: for 5-HT2AR Rmax ± S.E.M: value in parentheses
T1 construct: expressed in transfected cells; host or cells: Flp-In 293 T-Rex (tetracycline inducible)

5-HT2AR [2] = molecular target: T1, 5-HT2AR; assay: 5-HT2AR binding affinity (Ki), Table 8
5-HT2BR [3] = molecular target: T2, 5-HT2BR (Homo sapiens, UniProt P41595); assay: Calcium flux assay (FLIPR, Fluo-4), 5-HT2BR stable cell line; type: cell-based; settings: for 5-HT2BR Rmax ± S.E.M: value in parentheses
T2 construct: expressed in transfected cells; host or cells: Flp-In 293 T-Rex (tetracycline inducible)
Protocol: Stable cell lines for 5-HT2AR, 5-HT2BR and 5-HT2CR generated using the Flp-In 293 T-Rex Tetracycline inducible system (Invitrogen). Tetracycline-induced cells were seeded in 384-well poly-L-lysine plates at a density of 10,000 cells/well in DMEM containing 1% dialyzed FBS at least 16-24 hr before the calcium flux assay. On the day of the assay, the cells were incubated (20 ul/well) for 1 hr at 37° C. with Fluo-4 Direct dye (Invitrogen) reconstituted in FLIPR buffer (1×HBSS, 2.5 mM probenecid, and 20 mM HEPES, pH 7.4). After dye loading, cells were placed in a FLIPR^TETRA fluorescence imaging plate reader ([…]). Drug dilutions were prepared at 3× final concentration in drug buffer (1×HBSS, 20 mM HEPES, 0.1% BSA, 0.01% ascorbic acid, pH 7.4) and aliquoted into 384-well plates and placed in the FLIPR^TETRA for drug stimulation. The fluidics module and plate reader of the FLIPR^TETRA were programmed to read baseline fluorescence for 10s (1 read/s), then 10 ul of drug/well was added and read for 5 min (1 read/s). Fluorescence in each well was normalized to the average of the first 10 reads (i.e., baseline fluorescence). Then, the maximum-fold increase, which occurred within the first 60 s after drug addition, was determined and fold over baseline was plotted as a function of drug concentration. Data were normalized to % 5-HT stimulation and analyzed using “log(agonist) vs. response” in GraphPad Prism 9.0.

5-HT2BR [4] = molecular target: T2, 5-HT2BR; assay: 5-HT2BR binding affinity (Ki), Table 8
5-HT2CR = molecular target: T3, 5-HT2CR (Homo sapiens, UniProt P28335); assay: 5-HT2CR binding affinity (Ki), Table 8; settings: read-out: 5-HT2CR Ki
T3 sequence (P28335 33-458): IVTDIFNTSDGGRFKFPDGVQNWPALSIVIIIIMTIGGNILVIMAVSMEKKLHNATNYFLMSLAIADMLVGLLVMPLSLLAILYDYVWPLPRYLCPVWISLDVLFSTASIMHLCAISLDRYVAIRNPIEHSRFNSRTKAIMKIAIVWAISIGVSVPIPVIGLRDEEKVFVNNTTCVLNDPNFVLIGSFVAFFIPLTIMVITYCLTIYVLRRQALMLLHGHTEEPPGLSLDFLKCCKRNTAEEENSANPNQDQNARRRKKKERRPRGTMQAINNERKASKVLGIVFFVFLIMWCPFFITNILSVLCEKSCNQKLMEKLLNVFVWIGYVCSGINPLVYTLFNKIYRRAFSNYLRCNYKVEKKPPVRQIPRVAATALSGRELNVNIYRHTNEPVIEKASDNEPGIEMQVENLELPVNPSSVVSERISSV

[5] = bracketed value below Ki, read-out: 5-HT2BR pKi ± S.E.M (converted)
[6] = bracketed value below EC50, read-out: 5-HT2AR pEC50 ± S.E.M (converted)
[7] = bracketed value below Ki, read-out: 5-HT2AR pKi ± S.E.M (converted)
[8] = bracketed value below EC50, read-out: 5-HT2BR pEC50 ± S.E.M (converted)

T1 sequence (P28223 whole entry): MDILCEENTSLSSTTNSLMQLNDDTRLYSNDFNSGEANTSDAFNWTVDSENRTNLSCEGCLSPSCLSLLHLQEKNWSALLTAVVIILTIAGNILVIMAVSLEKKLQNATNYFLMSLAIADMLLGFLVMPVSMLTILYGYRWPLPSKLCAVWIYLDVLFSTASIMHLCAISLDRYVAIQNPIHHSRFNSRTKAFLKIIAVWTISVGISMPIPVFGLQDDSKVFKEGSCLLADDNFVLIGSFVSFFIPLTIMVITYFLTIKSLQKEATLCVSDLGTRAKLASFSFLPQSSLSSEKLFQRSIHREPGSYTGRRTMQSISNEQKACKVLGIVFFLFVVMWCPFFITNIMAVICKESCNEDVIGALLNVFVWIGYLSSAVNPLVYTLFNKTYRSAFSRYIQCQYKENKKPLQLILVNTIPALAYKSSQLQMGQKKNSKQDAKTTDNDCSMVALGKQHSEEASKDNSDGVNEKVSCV
T2 sequence (P41595 whole entry): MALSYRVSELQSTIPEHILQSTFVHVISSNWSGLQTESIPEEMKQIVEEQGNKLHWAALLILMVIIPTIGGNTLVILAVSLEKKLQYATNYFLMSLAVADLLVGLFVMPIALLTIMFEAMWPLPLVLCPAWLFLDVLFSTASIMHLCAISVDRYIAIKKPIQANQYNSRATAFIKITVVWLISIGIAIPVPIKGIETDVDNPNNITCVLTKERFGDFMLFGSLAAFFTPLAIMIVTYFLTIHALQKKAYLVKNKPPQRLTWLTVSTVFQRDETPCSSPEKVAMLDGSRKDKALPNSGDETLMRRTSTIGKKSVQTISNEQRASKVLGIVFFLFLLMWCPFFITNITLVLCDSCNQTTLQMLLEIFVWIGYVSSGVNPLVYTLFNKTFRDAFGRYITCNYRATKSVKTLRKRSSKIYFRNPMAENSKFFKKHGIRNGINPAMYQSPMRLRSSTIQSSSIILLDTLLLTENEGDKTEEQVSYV

SMILES	EC50 (5-HT2AR [1]; read-out: 5-HT2AR EC50)	5-HT2AR Rmax ± S.E.M (5-HT2AR [1])	Ki (5-HT2AR [2]; read-out: 5-HT2AR Ki)	EC50 (5-HT2BR [3]; read-out: 5-HT2BR EC50)	5-HT2BR Rmax ± S.E.M (5-HT2BR [3])	Ki (5-HT2BR [4]; [5])	Ki (5-HT2CR)	5-HT2BR EC50 (5-HT2BR [3])	Ki (5-HT2BR [4]; read-out: 5-HT2BR Ki)	EC50 (5-HT2AR [1]; [6])	Ki (5-HT2AR [2]; [7])	EC50 (5-HT2BR [3]; [8])	5-HT2AR EC50 (5-HT2AR [1])
C[C@H]1C=C(c2cncc(Cl)c2)CN(CCC2CCCC2)C1 [Compound 20, 5′-chloro-1-(2-cyclopentylethyl)-5-methyl-1,2,5,6-tetrahydro-3,3′-bipyridine]	0.54 µM	(49.1%	4.36 µM	0.085 µM	(66.2%	0.0107 µM	> 10 µM						
CCCCN1CC(c2c[nH]c3ncccc23)=C[C@@H](C)C1 [Compound 21, 3-(1-butyl-5-methyl-1,2,5,6-tetrahydropyridin-3-yl)-1H-pyrrolo[2,3-b]pyridine]	2.16 µM	(12.8%	2.19 µM			4.57 µM	> 10 µM	antagonist	2.92 µM				
CCCN1CC(c2c[nH]c3ncccc23)=C[C@@H](C)C1 [Compound 23, 3-(5-methyl-1-propyl-1,2,5,6-tetrahydropyridin-3-yl)-1H-pyrrolo[2,3-b]pyridine]		(65.6%	1.22 µM			1.66 µM	> 10 µM	antagonist	1.64 µM	0.245 µM	1.2 µM		
CCCN1CC(c2c[nH]c3ncccc23)=C[C@H](C)C1 [Compound 24, 3-(5-methyl-1-propyl-1,2,5,6-tetrahydropyridin-3-yl)-1H-pyrrolo[2,3-b]pyridine]	0.86 µM	(14.8%	> 10 µM				> 10 µM	antagonist	1.67 µM	0.871 µM			
C[C@@H]1C=C(c2c[nH]c3ncccc23)CN(CC2(C)COC2)C1 [compound 25, (R)-3-(5-methyl-1-((3-methyloxetan-3-yl)methyl)-1,2,5,6-tetrahydropyridin-3-yl)-1H-pyrrolo[2,3-b]pyridine]	4 µM	(29.5%	> 10 µM	6.38 µM	(44.6%		> 10 µM		3.29 µM				
C[C@H]1C=C(c2c[nH]c3ncccc23)CN(CC2(C)COC2)C1 [compound 26, (S)-3-(5-methyl-1-((3-methyloxetan-3-yl)methyl)-1,2,5,6-tetrahydropyridin-3-yl)-1H-pyrrolo[2,3-b]pyridine]	> 10 µM		> 10 µM	9.23 µM	(71.0%	5.75 µM	> 10 µM		5.83 µM			9.12 µM	
C[C@@H]1C=C(c2c[nH]c3ncccc23)CN(C2COC2)C1 [compound 27, (R)-3-(5-methyl-1-(oxetan-3-yl)-1,2,5,6-tetrahydropyridin-3-yl)-1H-pyrrolo[2,3-b]pyridine]	> 10 µM		> 10 µM				> 10 µM	antagonist	> 10 µM				
C[C@H]1C=C(c2c[nH]c3ncccc23)CN(C2COC2)C1 [compound 28, (S)-3-(5-methyl-1-(oxetan-3-yl)-1,2,5,6-tetrahydropyridin-3-yl)-1H-pyrrolo[2,3-b]pyridine]	> 10 µM		> 10 µM	5.24 µM	(48.1%	9.77 µM	> 10 µM		9.89 µM				
C[C@@H]1C=C(c2c[nH]c3ncccc23)CN(C2CC2)C1 [compound 29, (R)-3-(1-cyclopropyl-5-methyl-1,2,5,6-tetrahydropyridin-3-yl)-1H-pyrrolo[2,3-b]pyridine]	1.36 µM	(63.0%	6.14 µM	5.15 µM	(74.7%		> 10 µM		1.66 µM				
C[C@H]1C=C(c2c[nH]c3ncccc23)CN(C2CC2)C1 [compound 30, (S)-3-(1-cyclopropyl-5-methyl-1,2,5,6-tetrahydropyridin-3-yl)-1H-pyrrolo[2,3-b]pyridine]	3.54 µM	(29.1%	> 10 µM	4.36 µM	(58.3%		> 10 µM		2.54 µM				
C[C@@H]1C=C(c2c[nH]c3ncccc23)CN(CCCN(C)C)C1 [compound 31, (R)-N,N-dimethyl-3-(3-methyl-5-(1H-pyrrolo[2,3-b]pyridin-3-yl)-3,6-dihydropyrridin-1(2H)-yl)propan-1-amine]			> 10 µM				> 10 µM	antagonist	> 10 µM				antagonist
C[C@H]1C=C(c2c[nH]c3ncccc23)CN(CCCN(C)C)C1 [compound 32, (S)-N,N-dimethyl-3-(3-methyl-5-(1H-pyrrolo[2,3-b]pyridin-3-yl)-3,6-dihydropyridin-1(2H)-yl)propan-1-amine]			> 10 µM				> 10 µM	antagonist	9.72 µM				antagonist
C[C@@H]1C=C(c2c[nH]c3ncccc23)CN(CCCc2cnn(C)c2)C1 [compound 43, (R)-3-(5-methyl-1-(3-(1-methyl-1H-pyrazol-4-yl)propyl)-1,2,5,6-tetrahydropyridin-3-yl)-1H-pyrrolo[2,3-b]pyridine]			0.67 µM	0.79 µM	(39.5%	0.692 µM	> 10 µM		0.7 µM		0.661 µM		antagonist
C[C@H]1C=C(c2c[nH]c3ncccc23)CN(CCCc2cnn(C)c2)C1 [compound 44, (S)-3-(5-methyl-1-(3-(1-methyl-1H-pyrazol-4-yl)propyl)-1,2,5,6-tetrahydropyridin-3-yl)-1H-pyrrolo[2,3-b]pyridine]		(40.2%	2.37 µM	0.36 µM	(56.2%		> 10 µM		0.96 µM	0.269 µM		0.355 µM	
C[C@H]1C=C(c2c[nH]c3ncccc23)CN(Cc2cnco2)C1 [compound 48, (S)-5-((3-methyl-5-(1H-pyrrolo[2,3-b]pyridin-3-yl)-3,6-dihydropyridin-1(2H)-yl)methyl)oxazole]			> 10 µM	8.86 µM	(48.8%		> 10 µM		8.01 µM				antagonist
